Here are results for two compounds from patent US7884115B2, “Methods and compositions for the treatment of pain and other neurological conditions” (Allergan, Inc., priority 2004, dated 2011).

Molecules are shown by their SMILES.

What all share (type): in vivo
The test system of assay [1] is allodynia induced by N-methyl-D-aspartate (NMDA). In words: Mouse NMDA model of allodynia. Here is the method:
(§1) In variants of this model, allodynia can be induced using 100 ng N-methyl-D-aspartate (NMDA) in DMSO intrathecally, or IP phenylephrine (PE) 100 ng/kg formulated in dH2O. In either model, the compounds are formulated in d-H2O and given in a volume of 1 ml/kg body weight for intraperitoneal (IP) dosing. Six mice per group are rendered allodynic by injection of one of the following agents: 300 ng/kg sulprostone in DMSO IP, 100 ng/kg phenylephrine (PE) in dH2O IP, or 100 ng NMDA in DMSO intrathecally (IT). Fifteen minutes before administration of the allodynia-inducing agents, the experimental mice are given 1 mg/kg NB-DNJ. Thirty (30) minutes following administration of NB-DNJ, the allodynic response is monitored as described by brushing the flank of each mouse with a paint brush. Six mice per group are given one of the following: given 100 μg/kg NB-DNJ, 300 μg/kg NB-DNJ, 1 mg/kg NB-DNJ, or 3 mg/kg 1-deoxynojirimycin. After 15 minutes the mice are rendered allodynic by injection of 200 ng NMDA in DMSO IT. Starting thirty (30) minutes following administration of NB-DNJ, the allodynic response of each mouse is monitored by brushing the flank of the mouse with a paint brush. Five to six mice per group are rendered allodynic by injection of one of the following: 300 ng/kg sulprostone IP, 100 ng/kg phenylephrine (PE) IP, or 100 ng NMDA intrathecally (IT). Fifteen minutes prior to the induction of allodynia, the mice are given D-glucaro-delta-lactam IP at […], or 1 mg/kg. PE or NMDA-treated mice are given 1 mg/kg D-glucaro-delta-lactam IP.

Assay [2] has as its system allodynia induced by phenylephrine (PE). In words: Mouse phenylephrine (PE) model of allodynia. Here is the method:
as §1, with “brush.” for “brush. Six mice per group are given one of the following: given 100 μg/kg NB-DNJ, 300 μg/kg NB-DNJ, 1 mg/kg NB-DNJ, or 3 mg/kg 1-deoxynojirimycin. After 15 minutes the mice are rendered allodynic by injection of 200 ng NMDA in DMSO IT. Starting thirty (30) minutes following administration of NB-DNJ, the allodynic response of each mouse is monitored by brushing the flank of the mouse with a paint brush.”

In assay [3] the test system is tactile allodynia in ligated Chung rats. Description: Chung model (spinal nerve ligation, tactile allodynia, von Frey hairs). As to conditions: Chung rat, 30 min after administration. The source says:
One standard model for chronic pain involves the surgical ligation of the L5 (and optionally the L6) spinal nerves on one side in experimental animals. Rats recovering from the surgery gain weight and display a level of general activity similar to that of normal rats. However, these rats develop abnormalities of the foot, wherein the hindpaw is moderately everted and the toes are held together. More importantly, the hindpaw on the side affected by the surgery appears to become sensitive to pain from low-threshold mechanical stimuli, such as that producing a faint sensation of touch in a human, within about 1 week following surgery. […]
Tactile allodynia is measured prior to and 30 minutes after drug administration using von Frey hairs that are a series of fine hairs with incremental differences in stiffness. […] The applied force has been calculated to range from 0.41 to 15.1 grams. […] The 50% paw withdrawal threshold is determined using the method of Dixon, W. J., Ann. […] The post-drug threshold is compared to the pre-drug threshold and the percent reversal of tactile sensitivity is calculated based on a normal threshold of 15.1 grams.
Control rats are given the vehicle alone. Thirty (30) minutes following administration rats are brushed with Von Freys hairs and tactile allodynia is measured using the method of Dixon, as described above. […]

On to `CCCCN1C[C@H](O)[C@@H](O)[C@H](O)[C@H]1CO` [NB-DNJ, N-butyl-1-deoxy-nojirimycin], for which the “pain reduction at different doses” value in assay [1] (100 μg/kg, 300 μg/kg, 1 mg/kg, 15 min before 200 ng NMDA IT, FIG. 2) is recorded as “dose response”. Besides, the “reversal of the allodynic response” value is on record as “significant reversal” in assay [1] (1 mg/kg given 15 min before NMDA 100 ng IT, FIG. 1) and “no reversal” in assay [2] (1 mg/kg given 15 min before PE 100 ng/kg IP, FIG. 1). For the same compound, in assay [3] (1 mg/kg and 3 mg/kg intraperitoneally, FIG. 5), the “analgesic activity (allodynic reversal)” value is on record as “analgesic”.

For `O=C(O)[C@H]1NC(=O)[C@H](O)[C@@H](O)[C@@H]1O` [D-glucaro-delta-lactam], the analgesic effect entry is reported as “able to achieve an analgesic effect” in assay [1] (1 mg/kg IP, 15 min before NMDA 100 ng IT, FIG. 4) and “able to achieve an analgesic effect” in assay [2] (1 mg/kg IP, 15 min before PE 100 ng/kg IP, FIG. 4). Moreover, the “reversal of induced allodynia (reduction in allodynic response to Von Freys hair stimulus)” value in assay [3] (1 mg/kg intraperitoneally, FIG. 6) was “approximately 70%”.
